Results from patent US10233177B2, “TRPV1 vanilloid receptor antagonists with a bicyclic portion” (Serentrix LLC, priority 2010, dated 2019).
Read-outs that look alike come from different tables or passages of the source.

Assays:
[1] = biological target: TRPV1 (Rattus norvegicus (Rat), UniProt O35433); test: Ca2+ fluorescence measurements in cultured rat dorsal root ganglia neurons (capsaicin-induced calcium uptake); assay type: cell-based; settings: rat DRG neurons; for inhibition at 0.3 µM: DRG neuron
Sequence of TRPV1 (O35433 whole entry): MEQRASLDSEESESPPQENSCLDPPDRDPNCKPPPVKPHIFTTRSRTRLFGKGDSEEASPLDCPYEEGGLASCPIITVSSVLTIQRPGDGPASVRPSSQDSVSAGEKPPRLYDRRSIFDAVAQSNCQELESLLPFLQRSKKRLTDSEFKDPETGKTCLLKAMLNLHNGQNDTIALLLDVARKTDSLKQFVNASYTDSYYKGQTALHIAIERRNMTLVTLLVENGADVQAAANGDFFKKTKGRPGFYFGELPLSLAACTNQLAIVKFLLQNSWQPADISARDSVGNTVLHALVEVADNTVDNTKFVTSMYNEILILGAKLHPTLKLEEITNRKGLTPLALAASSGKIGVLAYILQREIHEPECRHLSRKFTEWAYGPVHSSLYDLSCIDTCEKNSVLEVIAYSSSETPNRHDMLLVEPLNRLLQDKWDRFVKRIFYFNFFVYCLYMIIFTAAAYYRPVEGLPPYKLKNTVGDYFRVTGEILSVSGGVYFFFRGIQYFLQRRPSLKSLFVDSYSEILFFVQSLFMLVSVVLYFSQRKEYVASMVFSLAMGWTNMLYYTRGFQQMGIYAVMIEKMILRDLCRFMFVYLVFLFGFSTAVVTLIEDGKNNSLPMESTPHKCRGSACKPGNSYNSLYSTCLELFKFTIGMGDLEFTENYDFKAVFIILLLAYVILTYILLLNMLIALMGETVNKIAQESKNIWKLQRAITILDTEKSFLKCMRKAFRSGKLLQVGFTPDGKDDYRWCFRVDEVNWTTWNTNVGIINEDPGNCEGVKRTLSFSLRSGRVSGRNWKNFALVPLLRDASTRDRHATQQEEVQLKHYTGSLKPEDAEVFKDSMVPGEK

[2] = tested on: CCI-induced mechanical hyperalgesia; test: CCI-induced mechanical hyperalgesia (Randall-Selitto paw pressure); assay type: in vivo; settings: rat CCI, 30 μmol/kg oral
Procedure: CCI-Induced Mechanical Hyperalgesia
Male SD rats (Charles River, Italy) weighing 250 g were anaesthetized with sodium pentobarbital (60 mg/kg, intraperitoneal (i.p.), 0.1 ml/10 g) and, under a dissecting microscope, the right common sciatic nerve was exposed at the level of the mid thigh and, proximal to the trifurcation of the nerve; four ligatures (4/0 chromic silk, Ethicon) were loosely tied around it, at about 0.5 mm spacing, until they elicited a brief twitch in the respective hind, taking care to preserve epineural circulation. Sham-operated animals (sciatic exposure without ligation) were used as controls. 14 days after the surgery, mechanical hyperalgesia was assessed using an analgesimeter (Ugo Basile, Italy, Randall-Selitto analgesic apparatus). This device generated a mechanical force on the affected paw and the nociceptive threshold was defined as the force (in g) at which the rat withdraws the paw (with a cut-off of 450 g). Two baseline measurement values were obtained 75 and 45 min before the actual test. After the second baseline measurement, animals were randomly allocated to the different treatment groups. Paw pressure test was performed 0, 75, 120, 165, 210 and 300 min after the oral administration of the compounds. All tested compounds were orally administrated (30 μmol/kg/10 ml) to rats by gavage.

[3] = tested on: CFA-induced thermal hyperalgesia; test: CFA-induced thermal hyperalgesia in rats (Hargreaves' test); assay type: in vivo; settings: rat, 30 μmol/kg oral; read-out: reversal of CFA-induced thermal hyperalgesia (maximal reversal activity / % of reversion)
From the text: CFA-Induced Thermal Hyperalgesia in Rats
This method was used for the determination of acute nociceptive thermal threshold and combines a chemical stimulus and heat for measuring pain sensitivity. Male SD rats (Charles River, Italy) weighing 100 to 250 gr. were used. Anti-hyperalgesic effects were investigated by using the Hargreaves' test. Complete Freund's Adjuvant (CFA; Sigma, USA) was used to induce thermal hyperalgesia. CFA contains killed Mycobacterium tuberculosis and is designed to provide continuous release of antigens necessary for stimulating a strong, persistent immune response. This effect causes the reduction of the hind paw withdrawal response latency induced by heat during the Hargreaves' test. Thermal stimulation was performed 30, 60, 120 and 180 (240 min only if needed) minutes after the oral administration of the antagonists. During the CFA-induced thermal hyperalgesia experiments two different solubilization protocols were used: when items presented an amino group, a pH=2 aqueous solution of HCl and 2.5% Tween80 was used; otherwise molecules were suspended in 0.5% Methocel and 2.5% Tween80. Compounds were orally administrated (30 μmol/kg/10 ml) to rats 24 hours after the CFA treatment. CFA was injected into the plantar surface of a rat's hind paw at a fixed dose of 50 μl by the use of a micro syringe.

[4] = Table 1, formula IA-C, 300 nM against calcium uptake induced by 30 nM capsaicin, read-out: % inhibition at 300 nM
[5] = capsaicin-induced calcium uptake, read-out: inhibition of the calcium uptake
[6] = 300 nM, read-out: abolition of capsaicin response at 300 nM
[7] = Table 1, against capsaicin-evoked [Ca2+]i mobilization, read-out: IC50
[8] = read-out: IC50 against capsaicin-evoked [Ca2+]i mobilization

In the case of O=C(NCc1ccc(C(F)(F)F)cc1)Nc1cccc2[nH]c(=O)[nH]c12 [Example 1, 1-(4-(trifluoromethyl)benzyl)-3-(2,3-dihydro-2-oxo-1H-benzo[d]imidazol-4-yl)urea], the inhibition at 0.3 µM [1, 4] is reported as 84%, the inhibition at 0.3 µM [1, 5] is reported as > 80% and the “anti-hyperalgesic activity (in words)” value [2] is reported as “relevant and long lasting anti-hyperalgesic activity”. The “reversal of hyperalgesia within the first 2 hours” value (shortened to “reversal”) [2] was “at least 80%”.

For O=C(NCc1ccc(C(F)(F)F)cc1N1CCCCC1)Nc1cccc2[nH]c(=O)[nH]c12 [Example 6, 1-(4-(trifluoromethyl)-2-(piperidin-1-yl)benzyl)-3-(2,3-dihydro-2-oxo-1H-benzo[d]imidazol-4-yl)urea], the inhibition at 0.3 µM [1, 6] was ~100%, the inhibition at 0.3 µM [1, 4] was 95% and the inhibition at 0.3 µM [1, 5] was > 80%. For the same compound, the IC50 [1, 7] was 0.51 nM, the IC50 [1, 8] was 0.51 nM and the “anti-hyperalgesic activity (in words)” value [2] was “relevant and long lasting anti-hyperalgesic activity”. For the same compound, the “reversal” value [2] was “at least 80%”.

With O=C(NCc1ccc(Cl)cc1N1CCCCC1)Nc1cccc2[nH]c(=O)[nH]c12 [Example 13, 1-(4-chloro-2-(piperidin-1-yl)benzyl)-3-(2,3-dihydro-2-oxo-1H-benzo[d]imidazol-4-yl)urea] the inhibition at 0.3 µM [1, 6] was ~100%, the inhibition at 0.3 µM [1, 4] was 96% and the inhibition at 0.3 µM [1, 5] was > 80%. The IC50 [1, 7] was 1.8 nM, the IC50 [1, 8] was 1.8 nM and the “anti-hyperalgesic activity (in words)” value [2] was “relevant and long lasting anti-hyperalgesic activity”. The “reversal” value [2] was “at least 80%” and the inhibition in vivo at 30 µmol/kg [3] was 60%.

O=C(NCc1ccc(C(F)(F)F)o1)Nc1cccc2[nH]c(=O)[nH]c12 [Example 23, 1-(5-(trifluoromethyl-furan-2-yl)-methyl)-3-(2,3-dihydro-2-oxo-1H-benzo[d]imidazol-4-yl)urea] was tested, and the inhibition at 0.3 µM [1, 4] was 82%, the inhibition at 0.3 µM [1, 5] was > 80% and the IC50 [1, 7] was 108 nM. For the same compound, the inhibition in vivo at 30 µmol/kg [3] was 46%.

For O=C1COc2c(cccc2NC(=O)NCc2ccc(C(F)(F)F)cc2N2CCCC2)N1 [Example 47, 1-(4-(trifluoromethyl)-2-(pyrrolidin-1-yl)benzyl)-3-(3,4-dihydro-3-oxo-2H-benzo[b][1,4]oxazin-8-yl)urea], the inhibition at 0.3 µM [1, 6] was ~100%, the inhibition at 0.3 µM [1, 4] was 100% and the inhibition at 0.3 µM [1, 5] was > 80%. The IC50 [1, 7] was 0.7 nM, the IC50 [1, 8] was 0.7 nM and the inhibition in vivo at 30 µmol/kg [3] was 46%.

With O=C1COc2c(cccc2NC(=O)NCc2ccc(C(F)(F)F)cc2N2CCCCC2)N1 [Example 48, 1-(4-(trifluoromethyl)-2-(piperidin-1-yl)benzyl)-3-(3,4-dihydro-3-oxo-2H-benzo[b][1,4]oxazin-8-yl)urea] the inhibition at 0.3 µM [1, 6] was ~100%, the inhibition at 0.3 µM [1, 4] was 100% and the inhibition at 0.3 µM [1, 5] was > 80%. It also gave an IC50 [1, 7] of 0.13 nM, an IC50 [1, 8] of 0.13 nM and an inhibition in vivo at 30 µmol/kg [3] of 45%.

For O=C1COc2c(cccc2NC(=O)NCc2ccc(C(F)(F)F)o2)N1 [Example 76, 1-(3-oxo-4H-1,4-benzoxazin-8-yl)-3-[[5-(trifluoromethyl)-2-furyl]methyl]urea], the inhibition at 0.3 µM [1, 4] was 40%.

O=C1COc2c(cccc2NC(=O)NCc2ccc(C(F)(F)F)nc2)N1 [Example 77, 1-(3-oxo-4H-1,4-benzoxazin-8-yl)-3-[[6-(trifluoromethyl)-3-pyridyl]methyl]urea] was tested, and the inhibition at 0.3 µM [1, 4] was 71%.

In the case of O=C1COc2c(cccc2NC(=O)NCc2ccc(C(F)(F)F)nc2N2CCCCC2)N1 [Example 78, 1-(3-oxo-4H-1,4-benzoxazin-8-yl)-3-[[2-(1-piperidyl)-6-(trifluoromethyl)-3-pyridyl]methyl]urea], the inhibition at 0.3 µM [1, 6] is reported as ~100%, the inhibition at 0.3 µM [1, 4] is reported as 100% and the inhibition at 0.3 µM [1, 5] is reported as > 80%. It also gave an IC50 [1, 8] of 0.61 nM.

Cc1ccc(CNC(=O)Nc2cccc3c2OCC(=O)N3)cc1 [Example 79, 1-(3-oxo-4H-1,4-benzoxazin-8-yl)-3-(p-tolylmethyl)urea] was tested, and the inhibition at 0.3 µM [1, 4] was 54%.

In the case of Cc1ccc(CNC(=O)Nc2cccc3c2OCC(=O)N3)c(N2CCCCC2)n1 [Example 80, 1-[[6-methyl-2-(1-piperidyl)-3-pyridyl]methyl]-3-(3-oxo-4H-1,4-benzoxazin-8-yl)urea], the inhibition at 0.3 µM [1, 6] is reported as ~100%, the inhibition at 0.3 µM [1, 4] is reported as 95% and the inhibition at 0.3 µM [1, 5] is reported as > 80%.

For CC(C)Oc1cc(C(F)(F)F)ccc1CNC(=O)Nc1cccc2c1OCC(=O)N2 [Example 81, 1-[[2-isopropoxy-4-(trifluoromethyl)phenyl]methyl]-3-(3-oxo-4H-1,4-benzoxazin-8-yl)urea], the inhibition at 0.3 µM [1, 6] was ~100%, the inhibition at 0.3 µM [1, 4] was 100% and the inhibition at 0.3 µM [1, 5] was > 80%.

COc1nc(C(F)(F)F)ccc1CNC(=O)Nc1cccc2c1OCC(=O)N2 [Example 82, 1-[[2-methoxy-6-(trifluoromethyl)-3-pyridyl]methyl]-3-(3-oxo-4H-1,4-benzoxazin-8-yl)urea] was tested, and the inhibition at 0.3 µM [1, 4] was 90%, the inhibition at 0.3 µM [1, 5] was > 80% and the IC50 [1, 7] was 54 nM.

In the case of O=C1COc2c(cccc2NC(=O)NCc2ccc(C(F)(F)F)cn2)N1 [Example 83, 1-(3-oxo-4H-1,4-benzoxazin-8-yl)-3-[[5-(trifluoromethyl)-2-pyridyl]methyl]urea], the inhibition at 0.3 µM [1, 4] is reported as 57%.

Cc1ccc(CNC(=O)Nc2cccc3c2OCC(=O)N3)c(OC(C)C)c1 [Example 84, 1-[(2-isopropoxy-4-methyl-phenyl)methyl]-3-(3-oxo-4H-1,4-benzoxazin-8-yl)urea] gave an inhibition at 0.3 µM [1, 4] of 61%.

Work on Cc1ccc(CNC(=O)Nc2cccc3c2OCC(=O)N3)c(OC(C)C)n1 [Example 85, 1-[(2-isopropoxy-6-methyl-3-pyridyl)methyl]-3-(3-oxo-4H-1,4-benzoxazin-8-yl)urea] yielded an inhibition at 0.3 µM [1, 4] of 79%.

CN(C)c1nc(C(F)(F)F)ccc1CNC(=O)Nc1cccc2c1OCC(=O)N2 [Example 86, 1-[[2-dimethylamino-6-(trifluoromethyl)-3-pyridyl]methyl]-3-(3-oxo-4H-1,4-benzoxazin-8-yl)urea] was tested, and the inhibition at 0.3 µM [1, 6] was ~100%, the inhibition at 0.3 µM [1, 4] was 100% and the inhibition at 0.3 µM [1, 5] was > 80%. For the same compound, the IC50 [1, 7] was 17 nM.

O=C1COc2c(cccc2NC(=O)NCc2ccc(C(F)(F)F)nc2N2CCCC2)N1 [Example 87, 1-(3-oxo-4H-1,4-benzoxazin-8-yl)-3-[[2-pyrrolidin-1-yl-6-(trifluoromethyl)-3-pyridyl]methyl]urea] was tested, and the inhibition at 0.3 µM [1, 6] was ~100%, the inhibition at 0.3 µM [1, 4] was 100% and the inhibition at 0.3 µM [1, 5] was > 80%. It also gave an IC50 [1, 7] of 9 nM.

O=C1COc2c(cccc2NC(=O)NCc2ccc(C(F)(F)F)cc2-n2ccnc2)N1 [Example 88, 1-[[2-(imidazol-1-yl)-4-(trifluoromethyl)phenyl]methyl]-3-(3-oxo-4H-1,4-benzoxazin-8-yl)urea] was tested, and the inhibition at 0.3 µM [1, 4] was 75%.

In the case of CC(C)(C)c1ccc(CNC(=O)Nc2cccc3c2OCC(=O)N3)cc1 [Example 89, 1-[(4-tert-butylphenyl)methyl]-3-(3-oxo-4H-1,4-benzoxazin-8-yl)urea], the inhibition at 0.3 µM [1, 4] is reported as 92%, the inhibition at 0.3 µM [1, 5] is reported as > 80% and the IC50 [1, 7] is reported as 19.8 nM.

With Cc1ccc(CNC(=O)Nc2cccc3c2OCC(=O)N3)c(N2CCCC2)c1 [Example 90, 1-[(4-methyl-2-pyrrolidin-1-yl-phenyl)methyl]-3-(3-oxo-4H-1,4-benzoxazin-8-yl)urea] the inhibition at 0.3 µM [1, 4] was 47%.

With CN(C)CCOc1nc(C(F)(F)F)ccc1CNC(=O)Nc1cccc2c1OCC(=O)N2 [Example 91, 1-[[2-(2-dimethylaminoethoxy)-6-(trifluoromethyl)-3-pyridyl]methyl]-3-(3-oxo-4H-1,4-benzoxazin-8-yl)urea] the inhibition at 0.3 µM [1, 4] was 40%.

With CN(C)CCOc1cc(C(F)(F)F)ccc1CNC(=O)Nc1cccc2c1OCC(=O)N2 [Example 92, 1-[[2-(2-dimethylaminoethoxy)-4-(trifluoromethyl)phenyl]methyl]-3-(3-oxo-4H-1,4-benzoxazin-8-yl)urea] the inhibition at 0.3 µM [1, 4] was 12%.
